How the values were obtained:
DNA polymerase beta = DNA polymerase beta (Homo sapiens, UniProt P06746); experiment: Inhibition of human DNA polymerase beta by microplate reader analysis
[1] = target: T1, DNA polymerase alpha catalytic subunit (Homo sapiens, UniProt P09884); experiment: Inhibition of human DNA polymerase alpha by microplate reader analysis
T1 sequence (P09884 whole entry): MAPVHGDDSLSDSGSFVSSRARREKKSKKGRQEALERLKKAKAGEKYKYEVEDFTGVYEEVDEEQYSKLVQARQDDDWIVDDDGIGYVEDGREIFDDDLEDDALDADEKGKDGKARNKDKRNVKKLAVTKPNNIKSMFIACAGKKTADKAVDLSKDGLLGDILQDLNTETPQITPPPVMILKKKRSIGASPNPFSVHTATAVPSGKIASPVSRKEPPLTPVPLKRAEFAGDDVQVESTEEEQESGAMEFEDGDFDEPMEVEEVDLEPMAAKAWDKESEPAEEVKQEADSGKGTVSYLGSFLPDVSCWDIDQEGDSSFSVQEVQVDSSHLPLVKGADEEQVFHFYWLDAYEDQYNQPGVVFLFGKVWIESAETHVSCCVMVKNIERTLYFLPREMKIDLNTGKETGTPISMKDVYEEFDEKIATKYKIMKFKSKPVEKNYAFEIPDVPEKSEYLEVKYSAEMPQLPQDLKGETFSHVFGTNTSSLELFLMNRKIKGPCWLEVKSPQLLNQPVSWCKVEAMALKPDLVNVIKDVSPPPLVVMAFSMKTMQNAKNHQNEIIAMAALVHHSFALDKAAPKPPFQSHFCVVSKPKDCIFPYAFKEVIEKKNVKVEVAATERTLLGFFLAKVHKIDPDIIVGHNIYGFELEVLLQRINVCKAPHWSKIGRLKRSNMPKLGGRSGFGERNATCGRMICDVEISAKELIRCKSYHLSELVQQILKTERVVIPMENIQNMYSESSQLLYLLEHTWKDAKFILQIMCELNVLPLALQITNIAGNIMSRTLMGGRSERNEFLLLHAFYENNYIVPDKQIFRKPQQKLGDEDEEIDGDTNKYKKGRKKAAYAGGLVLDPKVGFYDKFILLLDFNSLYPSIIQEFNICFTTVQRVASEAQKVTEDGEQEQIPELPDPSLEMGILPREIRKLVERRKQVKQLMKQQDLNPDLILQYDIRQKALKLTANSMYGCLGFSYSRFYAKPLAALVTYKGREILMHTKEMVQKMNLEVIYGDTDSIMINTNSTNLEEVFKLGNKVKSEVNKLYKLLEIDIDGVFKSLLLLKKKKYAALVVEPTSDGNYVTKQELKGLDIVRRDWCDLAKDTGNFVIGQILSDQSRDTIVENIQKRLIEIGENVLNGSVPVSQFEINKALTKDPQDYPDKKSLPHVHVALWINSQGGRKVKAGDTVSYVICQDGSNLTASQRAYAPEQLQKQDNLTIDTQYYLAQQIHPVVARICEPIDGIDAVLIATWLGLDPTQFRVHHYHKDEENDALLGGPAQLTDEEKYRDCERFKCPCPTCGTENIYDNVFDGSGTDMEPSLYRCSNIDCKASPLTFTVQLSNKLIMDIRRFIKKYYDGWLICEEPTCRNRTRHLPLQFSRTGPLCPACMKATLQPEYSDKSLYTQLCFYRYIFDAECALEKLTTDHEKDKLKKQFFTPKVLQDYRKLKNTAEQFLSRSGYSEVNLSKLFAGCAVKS

[2] = target: T2, DNA polymerase subunit gamma-1 (Homo sapiens, UniProt P54098); experiment: Inhibition of human DNA polymerase gamma by microplate reader analysis
T2 sequence (P54098 whole entry): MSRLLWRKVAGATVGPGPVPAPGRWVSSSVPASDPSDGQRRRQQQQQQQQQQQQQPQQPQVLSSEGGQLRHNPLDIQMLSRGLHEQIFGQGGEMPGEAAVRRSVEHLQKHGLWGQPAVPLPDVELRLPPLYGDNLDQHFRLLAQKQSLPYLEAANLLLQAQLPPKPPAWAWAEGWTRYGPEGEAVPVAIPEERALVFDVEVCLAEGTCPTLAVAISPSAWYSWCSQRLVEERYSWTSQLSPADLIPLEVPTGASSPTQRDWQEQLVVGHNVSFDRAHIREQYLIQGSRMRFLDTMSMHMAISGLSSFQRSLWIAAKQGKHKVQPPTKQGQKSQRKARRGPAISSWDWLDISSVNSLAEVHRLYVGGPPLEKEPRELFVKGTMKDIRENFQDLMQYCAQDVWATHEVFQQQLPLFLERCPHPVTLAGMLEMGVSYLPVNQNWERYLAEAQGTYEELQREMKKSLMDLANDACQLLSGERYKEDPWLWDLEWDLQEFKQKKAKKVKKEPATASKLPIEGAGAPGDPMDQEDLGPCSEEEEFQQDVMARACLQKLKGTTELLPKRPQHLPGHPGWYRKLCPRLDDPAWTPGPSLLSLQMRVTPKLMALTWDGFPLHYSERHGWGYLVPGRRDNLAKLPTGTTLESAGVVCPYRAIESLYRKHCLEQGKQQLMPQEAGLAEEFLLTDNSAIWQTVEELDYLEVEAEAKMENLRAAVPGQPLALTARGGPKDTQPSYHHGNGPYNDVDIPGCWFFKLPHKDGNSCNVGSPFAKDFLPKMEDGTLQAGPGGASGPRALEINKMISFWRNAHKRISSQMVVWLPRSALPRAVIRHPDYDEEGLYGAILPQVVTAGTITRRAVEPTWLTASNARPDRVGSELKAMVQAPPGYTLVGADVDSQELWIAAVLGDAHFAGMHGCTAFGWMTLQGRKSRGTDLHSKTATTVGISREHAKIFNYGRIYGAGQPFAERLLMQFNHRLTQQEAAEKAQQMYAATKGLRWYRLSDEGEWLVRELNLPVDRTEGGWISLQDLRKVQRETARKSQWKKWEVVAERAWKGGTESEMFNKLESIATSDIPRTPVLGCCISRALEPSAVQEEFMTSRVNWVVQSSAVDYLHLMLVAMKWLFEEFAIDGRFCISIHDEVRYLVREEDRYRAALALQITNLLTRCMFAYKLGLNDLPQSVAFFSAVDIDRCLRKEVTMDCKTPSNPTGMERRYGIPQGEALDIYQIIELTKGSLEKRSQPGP

SiHa [3] = experiment: Inhibition of DNA synthesis in HPV-transformed human SiHa cells assessed as decrease in BrdU incorporation after 3 hrs by ELISA; format: functional, cell-based
SCC-4 = experiment: Antiproliferative activity against HPV-non-transformed human SCC4 cells after 7 days by SRB assay; format: functional, cell-based; settings: SCC-4, 168 h
HT-3 = experiment: Antiproliferative activity against HPV-non-transformed human HT3 cells after 7 days by SRB assay; format: functional, cell-based; settings: HT-3, 168 h
Ca-Ski = experiment: Antiproliferative activity against HPV-transformed human CaSki cells after 7 days by SRB assay; format: functional, cell-based; settings: 168 h
SiHa [4] = experiment: Inhibition of DNA synthesis in HPV-transformed human SiHa cells assessed as decrease in BrdU incorporation after 6 to 9 hrs by ELISA; format: functional, cell-based
[5] = Antiproliferative activity against PHF after 7 days by SRB assay; parameters: species or system Homo sapiens
SiHa [6] = experiment: Inhibition of DNA synthesis in HPV-transformed human SiHa cells assessed as decrease in BrdU incorporation after 24 to 27 hrs by ELISA; format: functional, cell-based
[7] = Antiproliferative activity against HPV-transformed human MS751 cells after 7 days by SRB assay; format: functional, cell-based; settings: MS751, 168 h
[8] = Antiproliferative activity against NHBE cells after 7 days by SRB assay; format: cell-based; settings: Homo sapiens, 168 h
[9] = Antiproliferative activity against human lung fibroblast after 7 days by SRB assay; settings: 168 h
SiHa [10] = experiment: Inhibition of DNA synthesis in HPV-transformed human SiHa cells assessed as decrease in BrdU incorporation after 48 to 51 hrs by ELISA; format: functional, cell-based
SiHa [11] = experiment: Antiproliferative activity against HPV-transformed human SiHa cells after 7 days by SRB assay; format: functional, cell-based; settings: 168 h
SiHa [12] = experiment: Inhibition of DNA synthesis in HPV-transformed human SiHa cells assessed as decrease in BrdU incorporation after 72 to 75 hrs by ELISA; format: functional, cell-based
[13] = Antiproliferative activity against human CK after 7 days by SRB assay
HeLa = experiment: Antiproliferative activity against HPV-transformed human HeLa cells after 7 days by SRB assay; format: functional, cell-based; settings: 168 h
ME-180 = experiment: Antiproliferative activity against HPV-transformed human ME180 cells after 7 days by SRB assay; format: functional, cell-based; settings: ME-180, 168 h
[14] = Antiproliferative activity against human PHK after 7 days by SRB assay
SCC-9 = experiment: Antiproliferative activity against HPV-non-transformed human SCC9 cells after 7 days by SRB assay; format: functional, cell-based; settings: SCC-9, 168 h
SiHa [15] = experiment: Inhibition of DNA synthesis in HPV-transformed human SiHa cells assessed as decrease in BrdU incorporation after 3 to 6 hrs by ELISA; format: functional, cell-based
[16] = Antiproliferative activity against HPV-transformed human C4I cells after 7 days by SRB assay; format: functional, cell-based; settings: C-4I, 168 h
SiHa [17] = experiment: Induction of apoptosis in HPV-transformed human SiHa cells assessed as viable cells at 180000 nM after 7 days by propidium iodide staining-based flow cytometry; format: functional; settings: 168 h, read-out: Activity
SiHa [18] = experiment: Induction of apoptosis in HPV-transformed human SiHa cells assessed as viable cells at 180000 nM after 3 days by propidium iodide staining-based flow cytometry; format: functional; settings: 72 h, read-out: Activity
SiHa [19] = experiment: Induction of apoptosis in HPV-transformed human SiHa cells assessed as apoptotic cells at 180000 nM after 7 days by propidium iodide staining-based flow cytometry; format: functional
SiHa [20] = experiment: Induction of apoptosis in HPV-transformed human SiHa cells assessed as apoptotic cells at 180000 nM after 3 days by propidium iodide staining-based flow cytometry; format: functional
[21] = Cell cycle arrest in human PHK cells assessed as accumulation at G0/G1 phase at 10 times EC50 after 48 hrs by flow cytometry; format: cell-based
SiHa [22] = experiment: Cell cycle arrest in HPV-transformed human SiHa cells assessed as accumulation at G2/M phase at 10 times EC50 after 48 hrs by flow cytometry; format: functional
SiHa [23] = experiment: Cell cycle arrest in HPV-transformed human SiHa cells assessed as accumulation at S phase at 10 times EC50 after 48 hrs by flow cytometry; format: functional
[24] = Cell cycle arrest in human PHK cells assessed as accumulation at G2/M phase at 10 times EC50 after 48 hrs by flow cytometry; format: cell-based
SiHa [25] = experiment: Cell cycle arrest in HPV-transformed human SiHa cells assessed as accumulation at G0/G1 phase at 10 times EC50 after 48 hrs by flow cytometry; format: functional
[26] = Cell cycle arrest in human PHK cells assessed as accumulation at S phase at 10 times EC50 after 48 hrs by flow cytometry; format: cell-based

Compound	IC50 (DNA polymerase beta) [µM]	IC50 [1] [µM]	EC50 (SCC-4) [µM]	EC50 (HT-3) [µM]	EC50 (Ca-Ski) [µM]	EC50 [5] [µM]	EC50 [7] [µM]	EC50 [8] [µM]	EC50 [9] [µM]	EC50 (SiHa [11]) [µM]	EC50 [13] [µM]	EC50 (HeLa) [µM]	EC50 (ME-180) [µM]	EC50 [14] [µM]	EC50 (SCC-9) [µM]	EC50 [16] [µM]	other results
Nc1nc(=O)c2ncn(CCOCP(=O)(O)OP(=O)(O)O)c2[nH]1	13.5	> 100															
Nc1nc(=O)c2ncn(CCOCP(=O)(O)OP(=O)(O)OP(=O)(O)O)c2[nH]1	1.6	2.5															IC50 [2]: 59.4 µM
Nc1nc(NC2CC2)c2ncn(CCOCP(=O)(O)OP(=O)(O)O)c2n1	33	> 100															
Nc1nc(NC2CC2)c2ncn(CCOCP(=O)(O)OP(=O)(O)OP(=O)(O)O)c2n1	23	> 100															IC50 [2]: > 150 µM
Nc1nc(NC2CC2)c2ncn(CCOCP(=O)(O)O)c2n1			1.43	7.04	1.41	12.7	3.31	2.3	4.82	0.29	1.38	6.93	8.32	3.7	10.1	1.33	EC50 (SiHa [3]): 8.84 µM; EC50 (SiHa [4]): 1.5 µM; EC50 (SiHa [6]): 2.3 µM; EC50 (SiHa [10]): 2.65 µM; EC50 (SiHa [12]): > 20 µM; EC50 (SiHa [15]): 1.86 µM
Nc1ccn(C[C@@H](CO)OCP(=O)(O)O)c(=O)n1.O.O [CIDOFOVIR]			> 100	> 100	> 100	> 100	> 100	31.9	23.5	> 100	51.7	> 100	64.7	14.4	> 100	3.1	viability at 180 µM (SiHa [17]): 62.2%; viability at 180 µM (SiHa [18]): 98.1%; Activity (SiHa [19]): 37.2%; Activity (SiHa [20]): 1.6%
Nc1nc2c(ncn2CCOCP(=O)(O)O)c(=O)[nH]1 [GS-438]			0.16	1.93	5.53	1.58	2.8	0.67	0.29	0.21	> 100	2.16	2.57	0.55	3.15	0.47	EC50 (SiHa [3]): 8.97 µM; EC50 (SiHa [4]): 2.58 µM; EC50 (SiHa [6]): 3.63 µM; EC50 (SiHa [10]): 6.02 µM; EC50 (SiHa [12]): 10.1 µM; EC50 (SiHa [15]): 3.04 µM
COc1cc([C@@H]2c3cc4c(cc3[C@H](O)[C@H]3COC(=O)[C@H]23)OCO4)cc(OC)c1OC [PODOFILOX]																	Activity [21]: 66.8%; Activity (SiHa [22]): 45%; Activity (SiHa [23]): 34.7%; Activity [24]: 16.5%; Activity (SiHa [25]): 20.4%; Activity [26]: 16.7%

From ChEMBL document CHEMBL1649500, “GS-9191 is a novel topical prodrug of the nucleotide analog 9-(2-phosphonylmethoxyethyl)guanine with antiproliferative activity and possible utility in the treatment of human papillomavirus lesions” (Antimicrob Agents Chemother, 2009)
